Assay results reported in PMC1950228, “Organosilicon-Containing Thiazole Derivatives as Potential Lipoxygenase Inhibitors and Anti-Inflammatory Agents” (Bioinorganic Chemistry and Applications, 2007).
≈ marks a conversion by molar mass, not a printed value. Where “and” joins values, the source holds several entries; their conditions need not be identical. Identical values can stand only once. Entries after “also recorded” stand apart in the source; their conditions may differ. Like-named read-outs stand apart in the source and are kept apart here. Marks after values point to notes of the source that are not given here.

Columns and labels:
[1] = tested on: HT-1080 (human fibrosarcoma); assay: In vitro cytotoxicity, HT-1080; assay type: cell-based; details: for stimulation of HT-1080 cell growing: CV, at all studied concentrations; for CC50: Homo sapiens; for LC50 HT-1080: human fibrosarcoma, coloration not stated
Protocol: (§1) Monolayer tumour cell lines MG-22A (mouse hepatoma), HT-1080 (human fibrosarcoma), and normal mouse fibroblasts (NIH 3T3) were cultivated for 72 hours in DMEM standard medium (Sigma) without an indicator and antibiotics. After the ampoule had thawed, cells from one to four passages were used in three concentrations of test compound: 1, 10 and 100 μg mL^−1. The control cells and cells with tested compounds in the range of 2–5* 10^4 cell mL^−1 concentration (depending on line nature) were placed on separate 96 wells plates. Solutions containing test compounds were diluted and added in wells to give the final concentrations. Control cells were treated in the same manner only in the absence of test compounds. Plates were cultivated for 72 hours. The number of survived cells was determined using crystal violet (CV), 3-(4,5-dimethylthiazol-2-yl)-2,5-diphenyltetrazolinium bromide (MTT), or neutral red (NR) coloration which was assayed by multiscan spectrophotometer. The quantity of alive cells on control plate was taken in calculations for 100% [22, 23]. The LC50 was calculated using Graph Pad Prism 3.0 program, r < .05. Concentration of NO was determined according to [23].

MG-22A (mouse hepatoma) [2] = assay: In vitro cytotoxicity, MG-22A; assay type: cell-based; details: for CC50: Mus musculus, MG-22A; for LC50 MG-22A: mouse hepatoma, coloration not stated
Protocol: as §1

[3] = In vitro cytotoxicity, NIH 3T3 (neutral red) and LD50; assay type: cell-based; details: for CC50 at 72 h: 50% cell killing, neutral red coloration, normal mouse fibroblasts, read-out: LC50 NIH 3T3 NR; for LD50: mouse, NIH 3T3, method not described
Protocol: The control cells and cells with tested compounds in the range of 2–5* 10^4 cell mL^−1 concentration (depending on line nature) were placed on separate 96 wells plates. […] Control cells were treated in the same manner only in the absence of test compounds. Plates were cultivated for 72 hours. The number of survived cells was determined using crystal violet (CV), 3-(4,5-dimethylthiazol-2-yl)-2,5-diphenyltetrazolinium bromide (MTT), or neutral red (NR) coloration which was assayed by multiscan spectrophotometer. The quantity of alive cells on control plate was taken in calculations for 100% [22, 23]. The LC50 was calculated using Graph Pad Prism 3.0 program, r < .05. Concentration of NO was determined according to [23].

[4] = tested on: HT-1080 (human fibrosarcoma); assay: Intracellular NO generation, HT-1080; assay type: cell-based; details: CV coloration
Protocol: as §1

MG-22A (mouse hepatoma) [5] = assay: Intracellular NO generation, MG-22A; assay type: cell-based; details: CV coloration
Protocol: as §1

[6] = tested on: HT-1080 (human fibrosarcoma); details: cited from earlier work
[7] = tested on: carrageenin mice paw edema (CPE); assay: Carrageenin-induced mice paw edema inhibition; assay type: in vivo, AKR or A mice
Protocol: AKR or A mice (20–30 g, groups of ten) of both sexes were used. Females pregnant were excluded. A single dose of 0.2 mmol/kg body weight of compounds 12, 16, 20, 21 and 0.01 mmol/kg of compound 22 or 0.013 mmol/kg of compound 14 suspended in water with few drops of Tween 80 was administered intraperitoneally simultaneously to the intradermally injection of 0.05 mL carrageenin in the right hind paw. Indomethacin was used as a standard diluted agent.
Organosilicon-containing compounds 12, 14, 16, 20–22 were examined in vivo for their anti-inflammatory activity using the carrageenin mice paw edema (CPE) as a model of inflammation. The in vivo anti-inflammatory effects of the tested thiazole derivatives were assessed by using the functional model of carrageenin-induced […] paw edema and are presented in Table 1 as percentage of weight increase at the right hind paw in comparison to the uninjected left hind paw.

[8] = target: T1, soybean lipoxygenase (LOX) (Glycine max, UniProt P08170); assay: Soybean lipoxygenase inhibition (UV absorbance at 234 nm); assay type: biochemical; details: for % inhibition LOX: at 0.1 mmol
T1 sequence (P08170 1-839): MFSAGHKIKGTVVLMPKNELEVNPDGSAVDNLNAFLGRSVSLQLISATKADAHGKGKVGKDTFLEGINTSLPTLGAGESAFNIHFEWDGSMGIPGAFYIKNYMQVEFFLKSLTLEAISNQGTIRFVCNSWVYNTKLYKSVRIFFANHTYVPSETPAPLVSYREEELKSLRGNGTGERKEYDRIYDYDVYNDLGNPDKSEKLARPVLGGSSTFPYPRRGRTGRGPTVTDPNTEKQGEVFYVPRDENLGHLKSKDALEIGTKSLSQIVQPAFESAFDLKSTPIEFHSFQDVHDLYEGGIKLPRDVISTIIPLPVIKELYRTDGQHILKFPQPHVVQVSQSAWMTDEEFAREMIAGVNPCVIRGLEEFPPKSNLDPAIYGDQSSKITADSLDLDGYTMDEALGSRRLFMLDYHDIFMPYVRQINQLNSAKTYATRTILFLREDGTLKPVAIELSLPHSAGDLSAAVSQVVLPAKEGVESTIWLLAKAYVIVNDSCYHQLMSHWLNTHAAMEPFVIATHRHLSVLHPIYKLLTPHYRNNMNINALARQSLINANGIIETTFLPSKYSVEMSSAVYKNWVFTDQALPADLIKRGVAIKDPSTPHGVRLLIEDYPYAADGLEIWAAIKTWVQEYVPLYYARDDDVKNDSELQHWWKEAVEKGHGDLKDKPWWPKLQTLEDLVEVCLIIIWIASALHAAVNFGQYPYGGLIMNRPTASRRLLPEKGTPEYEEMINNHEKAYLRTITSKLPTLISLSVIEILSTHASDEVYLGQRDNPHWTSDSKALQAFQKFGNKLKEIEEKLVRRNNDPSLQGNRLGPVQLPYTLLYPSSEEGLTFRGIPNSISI
Protocol: The tested compounds dissolved in DMSO or ethanol (concentrations ranged from 0.1 to 1 mM) were incubated at room temperature with sodium linoleate (0.1 mmol) and 0.2 mL of enzyme solution (250 U/mL in saline).
While one may not extrapolate the quantitative results of this assay to the inhibition of mammalian 5-LOX, it has been shown that inhibition of plant lipoxygenase activity by NSAIDs is qualitatively similar to their inhibition of the rat mast cell lipoxygenase and may be used as a simple qualitative screen for such activity. […] The IC50 values for compounds 14, 16, 17, 19, and 22 were determined.

[9] = HT-1080, 50% cell killing, MTT coloration, 72 hours, read-out: LC50 HT-1080 MTT
[10] = HT-1080, 50% cell killing, crystal violet coloration, 72 hours, read-out: LC50 HT-1080 CV
[11] = 50% cell killing, MTT coloration, 72 hours, read-out: LC50 MG-22A MTT
[12] = 50% cell killing, crystal violet coloration, 72 hours, read-out: LC50 MG-22A CV
[13] = NIH 3T3 normal mouse fibroblasts
[14] = dose 0.2 mmol/kgbw, intraperitoneally
[15] = soybean lipoxygenase, sodium linoleate 0.1 mmol, read-out: IC50 LOX
[16] = HT-1080, 72 h, read-out: LC50 HT-1080 MTT
[17] = 72 h, read-out: LC50 MG-22A MTT

O=C(CN1CCC(O)CC1)Nc1nccs1 [Compound 6, 2-(4-hydroxypiperidin-1-yl)-N-(thiazol-2-yl)-acetnamide]
stimulation of HT-1080 cell growing [1]: up to 55%
CC50 [1, 9]: > 100 µg/mL
CC50 [1, 10]: > 100 µg/mL
LC50 HT-1080 [1]: do not exhibit cytotoxic properties
decrease of MG-22A cell growing (MG-22A (mouse hepatoma) [2]; MTT coloration): up to 40%
CC50 (MG-22A (mouse hepatoma) [2]; [11]): > 100 µg/mL
CC50 (MG-22A (mouse hepatoma) [2]; [12]): > 100 µg/mL
LC50 MG-22A (MG-22A (mouse hepatoma) [2]): do not exhibit cytotoxic properties
CC50 at 72 h [3, 13]: > 100 µg/mL
LD50 [3]: > 2000 mg/kg
NO HT-1080 CV [4]: 4
NO MG-22A CV (MG-22A (mouse hepatoma) [5]): 6

COc1ccc(-c2csc(NC(=O)CN3CCC(O)CC3)n2)cc1 [Compound 8, 2-(4-hy-droxypiperidin-1-yl)-N-[4-(p-methoxyphenyl)-thiazol-2-yl]-acetamide]
CC50 [1, 9]: 100 µg/mL (≈ 288 µM)
CC50 [1, 10]: > 100 µg/mL
CC50 (MG-22A (mouse hepatoma) [2]; [11]): 16 µg/mL
CC50 (MG-22A (mouse hepatoma) [2]; [12]): 17 µg/mL
CC50 at 72 h [3, 13]: > 100 µg/mL
LD50 [3]: 1110 mg/kg
NO HT-1080 CV [4]: 8
NO MG-22A CV (MG-22A (mouse hepatoma) [5]): 75

O=C(CCN1CCC(O)CC1)Nc1nccs1 [Compound 10, 3-(4-hydroxypiperidin-1-yl)-N-(thiazol-2-yl)-propionamide]
LC50 human fibrosarcoma ([6]; HT-1080, coloration not stated, previously published data ref 17): 48 µg/mL (≈ 188 µM)

Cc1ncsc1CCO[Si](C)(C)C [Compound 12, 4-methyl-5-(β-trimethylsiloxyethyl)-thiazole]
% carrageenin mice paw edema inhibition (CPE%) [7, 14]: 24 ^** %
% inhibition LOX ([8]; soybean lipoxygenase): 9.1%

C[Si](C)(C)OCc1csc(N)n1 [Compound 14, 2-amino-4-trimethylsiloxymethyl-thiazole]
% carrageenin mice paw edema inhibition (CPE%) ([7]; dose 0.013 mmol/kg, intraperitoneally): 35.5 ^* %
IC50 [8, 15]: 100 µM

C[Si](C)(C)OCc1csc(-c2ccccc2)n1 [Compound 16, 2-phenyl-4-trimethylsilox-ymethyl-thiazole]
% carrageenin mice paw edema inhibition (CPE%) [7, 14]: 47.6 ^* %
IC50 [8, 15]: 470 µM

C[Si](C)(C)OC1CCN(CC(=O)Nc2nccs2)CC1 [Compound 17, 2-(4-trimethylsiloxypiperidin-1-yl)-N-(thiazol-2-yl)-acetamide]
IC50 [8]: 350 µM
stimulation of HT-1080 cell growing [1]: up to 55%
CC50 [1, 16]: > 100 µg/mL
LC50 HT-1080 [1]: do not exhibit cytotoxic properties; also recorded: inactive
decrease of MG-22A cell growing (MG-22A (mouse hepatoma) [2]; MTT coloration): up to 40%
CC50 (MG-22A (mouse hepatoma) [2]; [17]): > 100 µg/mL
LC50 MG-22A (MG-22A (mouse hepatoma) [2]): do not exhibit cytotoxic properties; also recorded: inactive
CC50 at 72 h [3]: > 100 µg/mL
LD50 [3]: 2130 mg/kg
NO HT-1080 CV [4]: 11
NO MG-22A CV (MG-22A (mouse hepatoma) [5]): 23

C[Si](C)(C)OC1CCN(CC(=O)Nc2nc(-c3ccccc3)cs2)CC1 [Compound 18, 2-(4-trimethylsiloxypiperidin-1-yl)-N-(4-phenylthiazol-2-yl)-acetamide]
% inhibition LOX ([8]; soybean lipoxygenase): 66.7%

COc1ccc(-c2csc(NC(=O)CN3CCC(O[Si](C)(C)C)CC3)n2)cc1 [Compound 19, 2-(4-trimethylsilyloxypiperidin-1-yl)-N-[4-(p-methoxyphenyl)-thiazol-2-yl]-acetamide]
IC50 [8]: 10 µM
CC50 [1, 16]: 100 µg/mL (≈ 238 µM)
CC50 ([1]; HT-1080, read-out: LC50 HT-1080): > 100 µg/mL
CC50 (MG-22A (mouse hepatoma) [2]; 72 h, read-out: LC50 MG-22A CV): 21 µg/mL
CC50 (MG-22A (mouse hepatoma) [2]; [17]): 13 µg/mL
CC50 (MG-22A (mouse hepatoma) [2]; read-out: LC50 MG-22A): 30 µM
CC50 at 72 h [3]: 72 µg/mL (≈ 172 µM)
LD50 [3]: 839 mg/kg
NO HT-1080 CV [4]: 27
NO MG-22A CV (MG-22A (mouse hepatoma) [5]): 122

CCCCCCCCCCCCCCc1sc(NC(=O)CN2CCC(O[Si](C)(C)C)CC2)nc1-c1ccccc1 [Compound 20, 2-(4-trimethylsiloxypiperidin-1-yl)-N-(4-phenyl-5-tetradecylthi-azol-2-yl)-acetamide]
% carrageenin mice paw edema inhibition (CPE%) [7, 14]: 38.3 ^* %
lower lipoxygenase inhibiting properties in comparison with compound 18 ([8]; difference of % inhibition at 0.1 mmol): 26%
% inhibition LOX ([8]; soybean lipoxygenase): 40.8%

C[Si](C)(C)OC1CCN(CCC(=O)Nc2nccs2)CC1 [Compound 21, 3-(4-trimethylsiloxypiperidin-1-yl)-N-(thiazol-2-yl)-propionamide]
% carrageenin mice paw edema inhibition (CPE%) [7, 14]: 57.2% and 57.2 ^* %
LC50 human fibrosarcoma [6]: 44 µg/mL (≈ 134 µM)

C[Si](C)(C)CCC[n+]1ccsc1N.[I-] [Compound 22, 2-amino-3-(γ-trimethylsilylpropyl)thiazolium iodide]
% carrageenin mice paw edema inhibition (CPE%) ([7]; dose 0.01 mmol/kg, intraperitoneally): 55.0% and 55.0 ^* %
IC50 [8, 15]: 460 µM

COc1ccc2c(c1)c(CC(=O)O)c(C)n2C(=O)c1ccc(Cl)cc1 [Indomethacin, reference compound]
% carrageenin mice paw edema inhibition (CPE%) ([7]; standard, dose 0.1 mmol/kgbw): 57.4%
